Measured values reported in ChEMBL document CHEMBL1287770, “A protected l-bromophosphonomethylphenylalanine amino acid derivative (BrPmp) for synthesis of irreversible protein tyrosine phosphatase inhibitors” (Bioorg Med Chem, 2010).
One block for each molecule: values may come before it. Calls of active or inactive are those of the source. The rule behind the calls is not given here.

Key:
[1] = target: T1, Receptor-type tyrosine-protein phosphatase C (Homo sapiens, UniProt P08575); test: Inhibition of human CD45-cytoplasmic domain at 150 uM after 10 mins by Kitz-Wilson analysis
T1 sequence (P08575 whole entry): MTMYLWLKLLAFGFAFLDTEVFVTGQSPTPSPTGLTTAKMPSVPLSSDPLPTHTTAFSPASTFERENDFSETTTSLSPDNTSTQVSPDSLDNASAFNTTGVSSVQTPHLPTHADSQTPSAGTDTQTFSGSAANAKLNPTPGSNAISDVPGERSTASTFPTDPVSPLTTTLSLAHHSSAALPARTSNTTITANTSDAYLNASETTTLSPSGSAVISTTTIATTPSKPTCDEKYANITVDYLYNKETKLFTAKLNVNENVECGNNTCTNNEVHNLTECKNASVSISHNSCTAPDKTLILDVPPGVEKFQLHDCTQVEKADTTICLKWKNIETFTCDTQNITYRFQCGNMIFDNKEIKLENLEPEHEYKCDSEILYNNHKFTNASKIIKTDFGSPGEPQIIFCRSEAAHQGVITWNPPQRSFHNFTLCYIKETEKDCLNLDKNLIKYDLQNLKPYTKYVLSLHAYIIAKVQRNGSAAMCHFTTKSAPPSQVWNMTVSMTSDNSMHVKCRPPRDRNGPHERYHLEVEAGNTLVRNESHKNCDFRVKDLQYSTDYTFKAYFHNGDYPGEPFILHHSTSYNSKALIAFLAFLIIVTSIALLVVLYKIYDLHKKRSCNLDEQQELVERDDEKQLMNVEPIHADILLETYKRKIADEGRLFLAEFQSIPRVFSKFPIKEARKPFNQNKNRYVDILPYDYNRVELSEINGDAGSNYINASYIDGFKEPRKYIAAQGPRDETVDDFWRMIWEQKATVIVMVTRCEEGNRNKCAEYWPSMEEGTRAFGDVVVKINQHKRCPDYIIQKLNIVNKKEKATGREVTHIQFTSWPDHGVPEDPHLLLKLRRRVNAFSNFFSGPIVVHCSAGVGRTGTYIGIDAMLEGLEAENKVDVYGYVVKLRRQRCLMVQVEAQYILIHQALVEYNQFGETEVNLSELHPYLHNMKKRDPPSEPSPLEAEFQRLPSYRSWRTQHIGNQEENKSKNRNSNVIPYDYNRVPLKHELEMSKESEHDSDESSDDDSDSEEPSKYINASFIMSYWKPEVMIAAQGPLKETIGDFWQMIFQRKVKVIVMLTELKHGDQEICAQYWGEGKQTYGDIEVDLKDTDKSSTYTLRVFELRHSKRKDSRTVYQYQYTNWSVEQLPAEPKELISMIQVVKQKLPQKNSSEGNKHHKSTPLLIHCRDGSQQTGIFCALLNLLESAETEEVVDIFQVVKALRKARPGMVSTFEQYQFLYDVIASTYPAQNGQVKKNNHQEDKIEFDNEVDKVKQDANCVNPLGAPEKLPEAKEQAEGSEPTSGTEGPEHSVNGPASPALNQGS

[2] = target: T2, Receptor-type tyrosine-protein phosphatase C (Homo sapiens) (UniProt P08575); test: Competitive inhibition of human CD45-cytoplasmic domain after 10 mins
T2 sequence (whole entry): T1 sequence (P08575 whole entry)

[3] = target: T2, Receptor-type tyrosine-protein phosphatase C (Homo sapiens); test: Competitive inhibition of human CD45-cytoplasmic domain; settings: TDE = time-dependent effect
[4] = target: T1, Receptor-type tyrosine-protein phosphatase C; test: Inhibition of human CD45-cytoplasmic domain at 1500 uM after 10 mins by Kitz-Wilson analysis
[5] = compound: N[C@@H](Cc1ccc(C(Br)P(=O)(O)O)cc1)C(=O)O; test: Inhibition of human CD45-cytoplasmic domain at 150 uM after 10 mins by Michaelis-Menten equation analysis
[6] = compound: CC(C)C[C@H](NC(=O)[C@H](Cc1ccc(C(Br)P(=O)(O)O)cc1)NC(=O)[C@@H](N)CC(=O)O)C(=O)O; test: Inhibition of human CD45-cytoplasmic domain at 35 uM after 10 mins by Michaelis-Menten equation analysis

Molecule: O=P(O)(O)C(Br)c1ccccc1 (configuration not stated) [[BROMO(PHENYL)METHYL]PHOSPHONIC ACID]
Ki [4]: Not Active

B1: Receptor-type tyrosine-protein phosphatase C (Homo sapiens), P08575 (protein)
chain: T1 sequence (P08575 whole entry)
Km [5]: 141 µM | Km [6]: 141 µM

Further lines, results first:

Ki [1]: 40 µM | inhibition [2]: inactive | inhibition [3]: tde
Molecule: N[C@@H](Cc1ccc(C(Br)P(=O)(O)O)cc1)C(=O)O (some centres not stated)

inhibition [2]: inactive
Molecule: CC(C)C[C@H](NC(=O)[C@H](Cc1ccc(C(Br)P(=O)(O)O)cc1)NC(=O)[C@@H](N)CC(=O)O)C(=O)O (some centres not stated)
